Test results: ChEMBL document CHEMBL3885881, “DrugMatrix”

Organism: Rattus norvegicus
Test: DrugMatrix - Regimen: Daily Repeat
Assay type: toxicity, organism-based, Sprague-Dawley
Design: regimen Daily Repeat, gender Male, age 6-8 weeks
Conditions: in vivo, po, route oral GAVAGE, vehicle .5 % CMC; for BASOPHIL / EOSINOPHIL / ERYTHROCYTE COUNT / HEMATOCRIT / HEMOGLOBIN / LEUKOCYTE COUNT / LYMPHOCYTE / MEAN CORPUSCULAR HEMOGLOBIN / MEAN CORPUSCULAR HEMOGLOBIN CONCENTRATION / MEAN CORPUSCULAR VOLUME / MONOCYTE / NEUTROPHIL / PLATELET COUNT / ABSOLUTE BASOPHIL / ABSOLUTE EOSINOPHIL / ABSOLUTE LYMPHOCYTE / ABSOLUTE MONOCYTE / ABSOLUTE SEGMENTED NEUTROPHIL / NUCLEATED RED BLOOD CELLS: tissue Blood
[1] = 0 mg/kg, 72 h, dose level Control, time 3 day
[2] = 0 mg/kg, 72 h, tissue Plasma, dose level Control, time 3 day
[3] = 0 mg/kg, 120 h, dose level Control, time 5 day
[4] = 0 mg/kg, 120 h, tissue Plasma, dose level Control, time 5 day
[5] = 7 mg/kg, 72 h, dose level Low, time 3 day
[6] = 7 mg/kg, 72 h, tissue Plasma, dose level Low, time 3 day
[7] = 7 mg/kg, 120 h, dose level Low, time 5 day
[8] = 7 mg/kg, 120 h, tissue Plasma, dose level Low, time 5 day

NC1=NC(=O)C(c2ccccc2)O1 (stereo unspecified) [PEMOLINE]
BASOPHIL [1]: 0%
EOSINOPHIL [1]: 0.33%
ERYTHROCYTE COUNT [1]: 6.03 x10E6/uL
HEMATOCRIT [1]: 38.8%
HEMOGLOBIN [1]: 14.26 G/DL
LEUKOCYTE COUNT [1]: 10.64 x10E3/uL
LYMPHOCYTE [1]: 83.33%
MEAN CORPUSCULAR HEMOGLOBIN [1]: 23.64 pg
MEAN CORPUSCULAR HEMOGLOBIN CONCENTRATION [1]: 36.74 G/DL
MEAN CORPUSCULAR VOLUME [1]: 64.32 fL
MONOCYTE [1]: 3.33%
NEUTROPHIL [1]: 13%
PLATELET COUNT [1]: 1264.4 x10E3/uL
ALANINE AMINOTRANSFERASE [2]: 38.83 u/L
ALBUMIN [2]: 3.55 G/DL
ALKALINE PHOSPHATASE [2]: 368.33 u/L
ASPARTATE AMINOTRANSFERASE [2]: 66.17 u/L
BLOOD UREA NITROGEN [2]: 15.67 mg/dL
CHLORIDE [2]: 104.33 MEQ/L
CHOLESTEROL [2]: 76.5 mg/dL
CREATINE PHOSPHOKINASE [2]: 166.83 u/L
CREATININE [2]: 0.52 mg/dL
GLUCOSE [2]: 173.17 mg/dL
PHOSPHORUS [2]: 11.68 mg/dL
POTASSIUM [2]: 6.43 MEQ/L
SODIUM [2]: 149.5 MEQ/L
TOTAL PROTEIN [2]: 5.93 G/DL
BASOPHIL [3]: 0%
EOSINOPHIL [3]: 0%
ERYTHROCYTE COUNT [3]: 5.88 x10E6/uL
HEMATOCRIT [3]: 37.87%
HEMOGLOBIN [3]: 14.48 G/DL
LEUKOCYTE COUNT [3]: 12.43 x10E3/uL
LYMPHOCYTE [3]: 84.17%
MEAN CORPUSCULAR HEMOGLOBIN [3]: 24.65 pg
MEAN CORPUSCULAR HEMOGLOBIN CONCENTRATION [3]: 38.25 G/DL
MEAN CORPUSCULAR VOLUME [3]: 64.47 fL
MONOCYTE [3]: 4.33%
NEUTROPHIL [3]: 11.5%
PLATELET COUNT [3]: 1182.33 x10E3/uL
ALANINE AMINOTRANSFERASE [4]: 38.67 u/L
ALBUMIN [4]: 3.55 G/DL
ALKALINE PHOSPHATASE [4]: 342.5 u/L
ASPARTATE AMINOTRANSFERASE [4]: 63.33 u/L
BLOOD UREA NITROGEN [4]: 15.5 mg/dL
CHLORIDE [4]: 104 MEQ/L
CHOLESTEROL [4]: 75.5 mg/dL
CREATINE PHOSPHOKINASE [4]: 142.5 u/L
CREATININE [4]: 0.62 mg/dL
GLUCOSE [4]: 165.17 mg/dL
PHOSPHORUS [4]: 10.87 mg/dL
POTASSIUM [4]: 6.85 MEQ/L
SODIUM [4]: 150.17 MEQ/L
TOTAL PROTEIN [4]: 5.93 G/DL
ABSOLUTE BASOPHIL [5]: 0 CELLS/uL
ABSOLUTE EOSINOPHIL [5]: 0 CELLS/uL
ABSOLUTE LYMPHOCYTE [5]: 8380 CELLS/uL
ABSOLUTE MONOCYTE [5]: 87.67 CELLS/uL
ABSOLUTE SEGMENTED NEUTROPHIL [5]: 732.33 CELLS/uL
BASOPHIL [5]: 0%
EOSINOPHIL [5]: 0%
ERYTHROCYTE COUNT [5]: 5.42 x10E6/uL
HEMATOCRIT [5]: 34%
HEMOGLOBIN [5]: 13.77 G/DL
LEUKOCYTE COUNT [5]: 9.2 x10E3/uL
LYMPHOCYTE [5]: 91.33%
MEAN CORPUSCULAR HEMOGLOBIN [5]: 25.43 pg
MEAN CORPUSCULAR HEMOGLOBIN CONCENTRATION [5]: 40.5 G/DL
MEAN CORPUSCULAR VOLUME [5]: 62.87 fL
MONOCYTE [5]: 1%
NEUTROPHIL [5]: 7.67%
NUCLEATED RED BLOOD CELLS [5]: 0 /100WBC
PLATELET COUNT [5]: 1245 x10E3/uL
ALANINE AMINOTRANSFERASE [6]: 52 u/L
ALBUMIN [6]: 4.3 G/DL
ALKALINE PHOSPHATASE [6]: 415.33 u/L
ASPARTATE AMINOTRANSFERASE [6]: 90 u/L
BLOOD UREA NITROGEN [6]: 14 mg/dL
CARBON DIOXIDE [6]: 32 mmol/L
CHLORIDE [6]: 99.33 MEQ/L
CHOLESTEROL [6]: 78.67 mg/dL
CREATINE PHOSPHOKINASE [6]: 330.33 u/L
CREATININE [6]: 0.25 mg/dL
GLUCOSE [6]: 141.33 mg/dL
LACTATE DEHYDROGENASE [6]: 168.67 u/L
LIPASE [6]: 10.33 u/L
PHOSPHORUS [6]: 11.6 mg/dL
POTASSIUM [6]: 6.56 MEQ/L
SODIUM [6]: 145.47 MEQ/L
TOTAL BILIRUBIN [6]: 0.2 mg/dL
TOTAL PROTEIN [6]: 6.2 G/DL
URIC ACID [6]: 1.03 mg/dL
ABSOLUTE BASOPHIL [7]: 0 CELLS/uL
ABSOLUTE EOSINOPHIL [7]: 0 CELLS/uL
ABSOLUTE LYMPHOCYTE [7]: 13324.33 CELLS/uL
ABSOLUTE MONOCYTE [7]: 202.67 CELLS/uL
ABSOLUTE SEGMENTED NEUTROPHIL [7]: 1839.67 CELLS/uL
BASOPHIL [7]: 0%
EOSINOPHIL [7]: 0%
ERYTHROCYTE COUNT [7]: 5.15 x10E6/uL
HEMATOCRIT [7]: 31.77%
HEMOGLOBIN [7]: 12.83 G/DL
LEUKOCYTE COUNT [7]: 15.37 x10E3/uL
LYMPHOCYTE [7]: 86.67%
MEAN CORPUSCULAR HEMOGLOBIN [7]: 24.93 pg
MEAN CORPUSCULAR HEMOGLOBIN CONCENTRATION [7]: 40.47 G/DL
MEAN CORPUSCULAR VOLUME [7]: 61.63 fL
MONOCYTE [7]: 1.33%
NEUTROPHIL [7]: 12%
NUCLEATED RED BLOOD CELLS [7]: 0 /100WBC
PLATELET COUNT [7]: 1293.33 x10E3/uL
ALANINE AMINOTRANSFERASE [8]: 55.67 u/L
ALBUMIN [8]: 4.1 G/DL
ALKALINE PHOSPHATASE [8]: 349 u/L
ASPARTATE AMINOTRANSFERASE [8]: 73.67 u/L
BLOOD UREA NITROGEN [8]: 18.33 mg/dL
